The text below walks through data of patent US20040171511A1, “Allergen removing agent” (priority 2001, published 2004).

On the data set, the source says:
Component (c1-1) is preferably in a state that it is soluble in the allergen-removing agent.

With `CCCCCCCCCCCCCCCCO` [palmityl alcohol], the “solubility in component (a)” value is reported as at least 5 g/100 g and the solubility in water is on record as at most 0.3 g/100 g.
